Data reported in the supplement of paper PMC5908809.

Tests used:
[1] = tested on: normal NK cells expanded with K562-aAPC; assay: percent inhibition of viability; higher = more inhibition; details: 72 h, IL-2 2.5 ng/mL
Description: (§1)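 Drug sensitivity and resistance testing on K562-aAPC-expanded normal NK cells: 5 concentrations (10-fold steps over a 10,000-fold range), 72 h at 37 °C, viability by CellTiter-Glo normalised to DMSO and benzethonium chloride controls; DSS from the fitted curve.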

[2] = tested on: DERL-7 (IL-2 2.5 ng/mL); assay: as above; details: 72 h
[3] = tested on: IMC-1 (IL-2 20 ng/mL); assay: as above; details: 72 h
[4] = tested on: KAI3 (IL-2 2.5 ng/mL); assay: as above; details: 72 h
[5] = tested on: KHYG-1 (IL-2 2.5 ng/mL); assay: as above; details: 72 h
[6] = tested on: NK-92 (IL-2 2.5 ng/mL); assay: as above; details: 72 h
[7] = tested on: NK-YS (IL-2 2.5 ng/mL); assay: as above; details: 72 h
[8] = tested on: NKL (IL-2 2.5 ng/mL); assay: as above; details: 72 h
[9] = tested on: SNK-6 (IL-2 2.5 ng/mL); assay: as above; details: 72 h
[10] = tested on: YT (IL-2 2.5 ng/mL); assay: as above; details: 72 h
[11] = tested on: normal primary NK cells, pool 1 (3 donors) (IL-2 2.5 ng/mL); assay: as above; details: 72 h
[12] = tested on: normal primary NK cells, pool 1 (3 donors), resting (IL-2 0 ng/mL); assay: as above; details: 72 h
[13] = tested on: normal primary NK cells, pool 2 (3 donors) (IL-2 2.5 ng/mL); assay: as above; details: 72 h
[14] = tested on: normal primary NK cells, pool 3 (3 donors) (IL-2 2.5 ng/mL); assay: as above; details: 72 h
[15] = tested on: normal NK cells expanded with K562-aAPC; assay: drug sensitivity score (DSS) (DSS units); higher = more sensitive; extreme values may be limits of the assay; details: 72 h; IL-2 2.5 ng/mL
Description: as §1

[16] = tested on: DERL-7 (IL-2 2.5 ng/mL); assay: as above; details: 72 h
[17] = tested on: IMC-1 (IL-2 20 ng/mL); assay: as above; details: 72 h
[18] = tested on: KAI3 (IL-2 2.5 ng/mL); assay: as above; details: 72 h
[19] = tested on: KHYG-1 (IL-2 2.5 ng/mL); assay: as above; details: 72 h
[20] = tested on: NK-92 (IL-2 2.5 ng/mL); assay: as above; details: 72 h
[21] = tested on: NK-YS (IL-2 2.5 ng/mL); assay: as above; details: 72 h
[22] = tested on: NKL (IL-2 2.5 ng/mL); assay: as above; details: 72 h
[23] = tested on: SNK-6 (IL-2 2.5 ng/mL); assay: as above; details: 72 h
[24] = tested on: YT (IL-2 2.5 ng/mL); assay: as above; details: 72 h
[25] = tested on: normal primary NK cells, pool 1 (3 donors) (IL-2 2.5 ng/mL); assay: as above; details: 72 h
[26] = tested on: normal primary NK cells, pool 1 (3 donors), resting (IL-2 0 ng/mL); assay: as above; details: 72 h
[27] = tested on: normal primary NK cells, pool 2 (3 donors) (IL-2 2.5 ng/mL); assay: as above; details: 72 h
[28] = tested on: normal primary NK cells, pool 3 (3 donors) (IL-2 2.5 ng/mL); assay: as above; details: 72 h

COc1cccc2c1c(O)c(C(=O)N(C)c1ccc(C(F)(F)F)cc1)c(=O)n2C [Tasquinimod] (max concentration tested 10000 nM)
percent inhibition of viability [%]
Details	1 nM	10 nM	100 nM	1000 nM	10000 nM
[1]	-7.07	0.32	1.21	7.82	14.8
[2]	-3.57	-2.07	-7.69	-10.8	-11.1
[3]	-0.7	-0.26	6.03	4.89	24.9
[4]	-4.26	7.35	5.88	0.64	16.9
[5]	-2.03	0.19	16.6	3.8	15.4
[6]	-9.77	4.66	9.08	0.57	14.6
[7]	0.96	4.34	12.7	5.52	18.5
[8]	-7.64	-0.44	4.18	-3.6	2.35
[9]	-5.13	6.31	6.1	14.1	15.8
[10]	-0.31	1.63	5.58	-0.55	12.3
[11]	3.81	-6.54	6.5	-11.9	5.24
[12]	8.18	-8.58	-1.08	-15.9	-8.64
[13]	-8.15	-6.65	-1.09	-7.24	-2.69
[14]	-20.6	-6.75	-1.92	-3.86	-2.57

Details	drug sensitivity score
[15]	0.52
[16]	0
[17]	1.63
[18]	0.42
[19]	0.64
[20]	0.25
[21]	0.88
[22]	0
[23]	1.33
[24]	0.05
[25]	0
[26]	0
[27]	0
[28]	0

O=C(/C=C/c1cccnc1)NCCCCC1CCN(C(=O)c2ccccc2)CC1 [Daporinad] (max concentration tested 1000 nM)
percent inhibition of viability [%]
Details	0.1 nM	1 nM	10 nM	100 nM	1000 nM
[1]	-5.42	-8.02	95.3	98.9	99.5
[2]	-1.42	36.4	98.7	99.8	101
[3]	-4.3	-0.58	95.2	101	99.6
[4]	0.04	4.42	89.6	104	107
[5]	-4.62	0.47	102	108	110
[6]	-12.4	-11	78.5	107	110
[7]	-0.02	65.7	101	107	109
[8]	-7.99	8.6	96.8	106	109
[9]	-2.25	67.5	98.8	101	101
[10]	-3.84	3.35	72	106	109
[11]	3.25	78.4	97.4	98.2	98.6
[12]	19.1	78.8	93.6	93.4	94.4
[13]	1.47	71.4	96.2	96.4	95.7
[14]	0.86	57.3	98.6	99.3	100

Details	drug sensitivity score
[15]	29.2
[16]	35.4
[17]	29.8
[18]	29.3
[19]	30.7
[20]	26.9
[21]	38.1
[22]	31.6
[23]	38.3
[24]	26.6
[25]	39.6
[26]	40.4
[27]	37.9
[28]	37.3

COc1ncc(-c2ccc3nccc(-c4ccnnc4)c3c2)cc1NS(=O)(=O)c1ccc(F)cc1F [Omipalisib] (max concentration tested 1000 nM)
percent inhibition of viability [%]
Details	0.1 nM	1 nM	10 nM	100 nM	1000 nM
[1]	3.51	3.67	20.4	44.6	55.5
[2]	1.39	16.9	45.5	77.3	95.7
[3]	-0.58	-1.71	-11.8	-32.5	29.1
[4]	2.3	36.1	15.3	35.5	62.9
[5]	1.89	1.24	8.6	40.2	91.6
[6]	3.62	20.4	32.1	48.6	69.9
[7]	-0.6	1.69	13.2	53.7	73.3
[8]	-9.37	0.19	6.59	54.9	80.4
[9]	8.44	2.37	-0.31	30.5	61.5
[10]	-0.94	1.51	27.5	54.4	79.8
[11]	-10	-4.5	18.5	20.1	40
[12]	2.21	9.83	13.8	26.6	49.1
[13]	-6.47	2.05	24.7	24.7	47.5
[14]	-11.3	-2.43	7.07	5.39	36.4

Details	drug sensitivity score
[15]	10.6
[16]	21
[17]	0.6
[18]	12.9
[19]	9.7
[20]	14.8
[21]	11.7
[22]	11.4
[23]	7.24
[24]	13.7
[25]	5.18
[26]	6.75
[27]	7.36
[28]	2.64

COc1cc(Nc2ncc(F)c(Nc3ccc4c(n3)NC(=O)C(C)(C)O4)n2)cc(OC)c1OC [Tamatinib] (max concentration tested 10000 nM)
percent inhibition of viability [%]
Details	1 nM	10 nM	100 nM	1000 nM	10000 nM
[1]	0.12	1.7	1.14	27.4	36.2
[2]	-3.21	-4.44	-1.63	29.5	38.5
[3]	-4.81	-0.95	-11	-15.5	56.1
[4]	4.14	8.73	12.3	52.5	82.4
[5]	1.54	-0.18	6.88	36	99.6
[6]	-17.2	-0.02	-13.7	11	90.4
[7]	-3.68	-3.13	-0.99	12.5	56.2
[8]	-1.49	-0.26	2.39	34.2	68.3
[9]	2.85	9.06	-0.26	-7.25	83
[10]	2.46	0.67	2.31	5.93	82.7
[11]	-10.3	-6.76	7.45	9.38	25.4
[12]	-31.4	-30.1	-18.1	-11	-3.1
[13]	-10	-7.66	-17.3	5.93	49.9
[14]	-10.4	-5.15	-13.3	2.62	54.5

Details	drug sensitivity score
[15]	5
[16]	5.34
[17]	2.27
[18]	11.7
[19]	9.92
[20]	6.83
[21]	5.03
[22]	7.84
[23]	4.09
[24]	5.49
[25]	1.62
[26]	0
[27]	3.61
[28]	3.27

NC(=O)c1ccc(I)c([N+](=O)[O-])c1 [Iniparib] (max concentration tested 10000 nM)
percent inhibition of viability [%]
Details	1 nM	10 nM	100 nM	1000 nM	10000 nM
[1]	7.03	0.05	0.33	1.63	13.4
[2]	-3.85	-2.44	3.9	-0.89	28.1
[3]	2.82	5.28	4.37	4.53	-3.7
[4]	11.4	8.8	12.9	11.2	19
[5]	-2.79	-0.73	-1.94	0.34	2.04
[6]	8.25	4.1	12.8	3.36	7.28
[7]	-0.99	0.64	-4.34	-1.33	-4.16
[8]	-0.1	1.47	0.26	-4.81	-5.47
[9]	2.09	3.24	11.9	10.5	23.6
[10]	7.63	6.75	4.79	6.7	5.3
[11]	8.54	2.74	4.22	12.3	53.8
[12]	-2.43	-4.44	-6.4	24.9	78.9
[13]	-8.36	-7.08	1.43	-0.1	30.1
[14]	-1.14	-4.93	1.99	-1.49	19.3

Details	drug sensitivity score
[15]	0.24
[16]	1.1
[17]	0
[18]	0
[19]	0
[20]	0
[21]	0
[22]	0
[23]	2.01
[24]	0
[25]	4.84
[26]	7.97
[27]	1.31
[28]	0.46
